In US5573936A, “Process for purifying echinocandin B deacylase” (Eli Lilly and Company, priority 1995, dated 1996):
*1 amine or outer side, *2 acyl side, *3 side chain or, on linkers, in order; H or OH if unused. Where a SMILES comes first, the peptide text is derived from it. Bridges are numbered along the chain shown (N, C = ends). [ ]: non-standard residue; d: D form. The star is where a group is joined. ξ: configuration not given here. ξOrn(4,5-diOH) = O=C(C(CC(O)C(O)N[*:3])N[*:1])[*:2]; ξhTyr(βξ-OH,γξ-OH) = NC(C(=O)O)C(O)C(O)c1ccc(O)cc1; ξPro(3ξ-OH,4ξ-Me) = CC1CNC(C(=O)O)C1O; X2 = O=C(C=Cc1ccc(N[*:1])cc1)[*:2]; Palmitoyl = CCCCCCCCCCCCCCCC(=O)*; X6 = O=C(Cc1ccc(N[*:1])cc1)[*:2]; X3 = CCCCCCCCOc1ccc(CC(=O)*)cc1; X5 = CCCCCCCOc1ccc(CCC(=O)*)cc1; X1 = CCCCCC=CCC=CCCCCCCCC(=O)*; X4 = CCCCCOc1ccc(CCC(=O)*)cc1; Hyp = O=C(O)[CH]1C[CH](O)CN1; Lauroyl = CCCCCCCCCCCC(=O)*; 4Abz = Nc1ccc(C(=O)O)cc1

Biological target: T1, ECB deacylase (Actinoplanes utahensis, UniProt P29958)
T1 construct: ECB deacylase is an 81-kilodalton (KD) heterodimer comprising 63-KD and 18 KD subunits; made in house; host or cells: Actinoplanes utahensis (native producer, not recombinant); enzyme solubilized from whole cells with salt and purified
T1 sequence (P29958 230-786 limits assumed): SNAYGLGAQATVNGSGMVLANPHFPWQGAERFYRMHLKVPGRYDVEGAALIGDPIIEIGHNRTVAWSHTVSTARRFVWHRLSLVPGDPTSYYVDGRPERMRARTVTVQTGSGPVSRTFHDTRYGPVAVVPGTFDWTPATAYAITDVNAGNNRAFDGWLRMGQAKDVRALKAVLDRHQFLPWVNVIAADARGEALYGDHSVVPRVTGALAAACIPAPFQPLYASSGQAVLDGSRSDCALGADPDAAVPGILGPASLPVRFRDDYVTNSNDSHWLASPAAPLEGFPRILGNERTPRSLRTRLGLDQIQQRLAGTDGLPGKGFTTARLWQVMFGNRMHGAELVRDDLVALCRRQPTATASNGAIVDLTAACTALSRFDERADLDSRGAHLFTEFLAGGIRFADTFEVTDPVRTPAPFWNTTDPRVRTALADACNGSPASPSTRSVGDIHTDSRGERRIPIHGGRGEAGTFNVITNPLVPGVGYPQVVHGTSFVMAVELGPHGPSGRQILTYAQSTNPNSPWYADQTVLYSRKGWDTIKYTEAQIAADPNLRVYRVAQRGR
T1 sequence (P29958 35-214 limits assumed): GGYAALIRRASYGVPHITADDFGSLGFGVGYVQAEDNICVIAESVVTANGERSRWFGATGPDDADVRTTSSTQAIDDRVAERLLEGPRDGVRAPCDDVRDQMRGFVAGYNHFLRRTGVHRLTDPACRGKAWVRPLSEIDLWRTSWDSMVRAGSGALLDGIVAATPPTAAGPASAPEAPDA
Test: ECB deacylase assay (formation of ECB nucleus by HPLC)
Assay type: biochemical
Details: for percent activity relative to the deacylase activity of 100% for ECB itself: substrate specificity
Experimental: The assay employed herein for determining and measuring deacylase activity utilizes echinocandin B as substrate. A typical reaction mixture of 1 ml for ECB deacylase assay contained […] of ECB and 0.000003 to 0.003 unit of the enzyme in 0.05M KH2 PO4, pH 6.0, in the presence of 0.68M KCl and 15% DMSO to effect solution of the ECB. The enzymatic reaction was initiated by addition of the enzyme and was continued for 20 min at 60° C. before being interrupted by the addition of phosphoric acid. After a low-speed centrifugation to remove precipitated protein, the deacylase activity was determined by monitoring the formation of ECB nucleus at 225 nm using HPLC.
HPLC components were IBM PS/2 Model 80 and Color Display (IBM, Armonk, N.Y.), a Water 715 Ultra WISP Sample Processor (Waters Associates, Milford, Mass.), and a Beckman System Gold Programmable Solvent Module 126 and Scanning Detector Module 167 (Beckman, Fullerton, Calif.).
The ECB nucleus was eluted from an Apex Octadecyl 3 μ column (4.6×10 cm) (Jones Chromatography, Littleton, Co.) with a mobile phase of 3.9% CH3 CN/0.1% trifluoroacetic acid and a flow rate of 1 ml/min. The nucleus formation was linear with time during the assays. […] As used herein one unit of enzyme activity is defined as the amount of the deacylase required to cause formation of one μmole of the ECB nucleus per minute from ECB under the above described reaction conditions.

Compound	percent activity relative to the deacylase activity of 100% for ECB itself (purified deacylase) [%]	substrate of the purified deacylase (in words) (purified deacylase)	other results
CCCCCCCCCCCC(=O)Nc1ccc(C=CC(=O)NC2CC(O)C(O)NC(=O)C3C(O)C(C)CN3C(=O)C(C(C)O)NC(=O)C(C(O)C(O)c3ccc(O)cc3)NC(=O)C3CC(O)CN3C(=O)C(C(C)O)NC2=O)cc1 (stereo not drawn) (Lauroyl-[X2][ξOrn(4,5-diOH)]T[Hyp][ξhTyr(βξ-OH,γξ-OH)]T[ξPro(3ξ-OH,4ξ-Me)]; lactam 2-C; configuration not given here)	15		
CCCCCCCCCCCC(=O)Nc1ccc(CC(=O)NC2CC(O)C(O)NC(=O)C3C(O)C(C)CN3C(=O)C(C(C)O)NC(=O)C(C(O)C(O)c3ccc(O)cc3)NC(=O)C3CC(O)CN3C(=O)C(C(C)O)NC2=O)cc1 (stereo not drawn) (Lauroyl-[X6][ξOrn(4,5-diOH)]T[Hyp][ξhTyr(βξ-OH,γξ-OH)]T[ξPro(3ξ-OH,4ξ-Me)]; lactam 2-C; configuration not given here)	5		
CCCCCCCCOc1ccc(CC(=O)NC2CC(O)C(O)NC(=O)C3C(O)C(C)CN3C(=O)C(C(C)O)NC(=O)C(C(O)C(O)c3ccc(O)cc3)NC(=O)C3CC(O)CN3C(=O)C(C(C)O)NC2=O)cc1 (stereo not drawn) (X3-[ξOrn(4,5-diOH)]T[Hyp][ξhTyr(βξ-OH,γξ-OH)]T[ξPro(3ξ-OH,4ξ-Me)]; lactam 1-C; configuration not given here)	30		
CCCCCOc1ccc(CCC(=O)NC2CC(O)C(O)NC(=O)C3C(O)C(C)CN3C(=O)C(C(C)O)NC(=O)C(C(O)C(O)c3ccc(O)cc3)NC(=O)C3CC(O)CN3C(=O)C(C(C)O)NC2=O)cc1 (stereo not drawn) (X4-[ξOrn(4,5-diOH)]T[Hyp][ξhTyr(βξ-OH,γξ-OH)]T[ξPro(3ξ-OH,4ξ-Me)]; lactam 1-C; configuration not given here)	12		
CCCCCCCOc1ccc(CCC(=O)NC2CC(O)C(O)NC(=O)C3C(O)C(C)CN3C(=O)C(C(C)O)NC(=O)C(C(O)C(O)c3ccc(O)cc3)NC(=O)C3CC(O)CN3C(=O)C(C(C)O)NC2=O)cc1 (stereo not drawn) (X5-[ξOrn(4,5-diOH)]T[Hyp][ξhTyr(βξ-OH,γξ-OH)]T[ξPro(3ξ-OH,4ξ-Me)]; lactam 1-C; configuration not given here)	30		
CCCCCCCCCCCC(=O)Nc1ccc(C(=O)NC2CC(O)C(O)NC(=O)C3C(O)C(C)CN3C(=O)C(C(C)O)NC(=O)C(C(O)C(O)c3ccc(O)cc3)NC(=O)C3CC(O)CN3C(=O)C(C(C)O)NC2=O)cc1 (stereo not drawn) ({Lauroyl-4Abz}-[ξOrn(4,5-diOH)]T[Hyp][ξhTyr(βξ-OH,γξ-OH)]T[ξPro(3ξ-OH,4ξ-Me)]; lactam 1-C; configuration not given here)		substrates	
CCN1C(=O)C=CC1=O [N-ethylmaleimide (NEM), N-ethylmaleimide]			enhancement of the rate of conversion of ECB to ECB nucleus (purified deacylase): 6-7 fold
CCCCCCCCCCCCCCCC(=O)NC1CC(O)C(O)NC(=O)C2C(O)C(C)CN2C(=O)C(C(C)O)NC(=O)C(C(O)C(O)c2ccc(O)cc2)NC(=O)C2CC(O)CN2C(=O)C(C(C)O)NC1=O (stereo not drawn) [aculeacin] (Palmitoyl-[ξOrn(4,5-diOH)]T[Hyp][ξhTyr(βξ-OH,γξ-OH)]T[ξPro(3ξ-OH,4ξ-Me)]; lactam 1-C; configuration not given here)		deacylates	
CCCCCC=CCC=CCCCCCCCC(=O)NC1CC(O)C(O)NC(=O)C2C(O)C(C)CN2C(=O)C(C(C)O)NC(=O)C(C(O)C(O)c2ccc(O)cc2)NC(=O)C2CC(O)CN2C(=O)C(C(C)O)NC1=O (stereo not drawn) [echinocandin B] (X1-[ξOrn(4,5-diOH)]T[Hyp][ξhTyr(βξ-OH,γξ-OH)]T[ξPro(3ξ-OH,4ξ-Me)]; lactam 1-C; configuration not given here)	100	deacylates	ratio of ECB nucleus formed to ECB disappearance (reaction stoichiometry): about 52.4%; Vmax for the ECB reaction (purified enzyme): 10 to 11 µmol/min/mg
Daptomycin		cleaves the fatty acid side chain	
